From PubChem BioAssay (NCI)
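Growth conditions: 96-well plates. Treatment: test compound, 48 hours, 5 concentrations. Analysis: linear interpolation between bracketing concentrations; unreached endpoints set to highest concentration. The concentration for full growth arrest is given as TGI.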

Assays:
Experiment in all cases: NCI anticancer screen, dose series, 48 h
A498 renal = system: A498 renal
CAKI-1 renal = system: CAKI-1 renal
DMS 273 small cell lung = system: DMS 273 small cell lung
HOP-62 NSCLC = system: HOP-62 NSCLC
KM20L2 colon = system: KM20L2 colon
LXFL 529 NSCLC = system: LXFL 529 NSCLC
M14 melanoma = system: M14 melanoma
OVCAR-4 ovarian = system: OVCAR-4 ovarian
SF-268 CNS = system: SF-268 CNS
SR leukemia = system: SR leukemia
HS 578T breast = system: HS 578T breast
MCF7 breast = system: MCF7 breast
MDA-N = system: MDA-N
PC-3 prostate = system: PC-3 prostate

Structure (SMILES) | TGI (A498 renal) | TGI (CAKI-1 renal) | TGI (DMS 273 small cell lung) | TGI (HOP-62 NSCLC) | TGI (KM20L2 colon) | TGI (LXFL 529 NSCLC) | TGI (M14 melanoma) | TGI (OVCAR-4 ovarian) | TGI (SF-268 CNS) | TGI (SR leukemia) | TGI (HS 578T breast) | TGI (MCF7 breast) | TGI (MDA-N) | TGI (PC-3 prostate)
C#CCN(Cc1ccc2nc(-c3ccccc3)c(Cl)nc2c1)c1ccc(Cl)c(Cl)c1 | > 100 µM | > 100 µM | > 100 µM | > 100 µM | > 100 µM | > 100 µM | > 100 µM | > 100 µM | > 100 µM | > 100 µM | – | – | – | –
Cc1nc(-n2nc(-c3ccccc3)cc2-c2ccccc2)sc1C(/C=C\c1ccc([N+](=O)[O-])cc1)=N/NC(=S)NN | > 100 µM | > 56.5 µM | – | 52.2 µM | > 100 µM | > 100 µM | > 80.1 µM | > 100 µM | > 61.3 µM | – | > 100 µM | 35.1 µM | 50.7 µM | > 100 µM
CCC(/C(=N/NC(=O)C[N+](C)(C)C)c1ccccc1)C1OC(=O)c2ccccc21 (stereo unspecified) | – | > 100 µM | > 100 µM | > 100 µM | > 100 µM | > 100 µM | > 100 µM | > 100 µM | > 100 µM | > 100 µM | – | – | – | –
Nc1nc2c(nnn2C2C=C(CO)C(O)C2O)c(=O)[nH]1 (stereo unspecified) | > 100 µM | > 100 µM | > 100 µM | > 100 µM | > 100 µM | > 100 µM | > 100 µM | > 100 µM | > 100 µM | > 100 µM | – | – | – | –
O=C1C2=C(c3ccccc31)C(c1ccc([N+](=O)[O-])cc1)NC(=S)N2 (stereo unspecified) | > 100 µM | > 100 µM | > 100 µM | > 100 µM | > 100 µM | > 100 µM | > 100 µM | > 100 µM | > 100 µM | – | – | – | – | –
N#Cc1cc([N+](=O)[O-])ccc1NC(=O)C(=O)Nn1c(=S)[nH]c2ccccc2c1=O | > 100 µM | > 100 µM | – | > 100 µM | > 100 µM | > 100 µM | > 100 µM | > 100 µM | > 100 µM | > 100 µM | – | – | – | –
O=C(C#Cc1ccccc1)Nc1ccccc1CC(c1c[nH]c2ccccc12)c1c[nH]c2ccccc12 | – | > 100 µM | 38.8 µM | > 100 µM | – | 28.4 µM | 39.6 µM | – | > 100 µM | – | – | – | – | –
CC(C)c1cccc(C(C)C)c1NC(=O)/C(Cc1nc2ccc(Cl)cc2[nH]c1=O)=N\NC(=O)C[N+](C)(C)C | > 100 µM | > 100 µM | – | > 100 µM | > 100 µM | – | > 100 µM | > 100 µM | > 100 µM | > 100 µM | – | – | – | –
CC(=O)Nc1ccc(S(=O)(=O)Nc2cnc3ccccc3n2)cc1 | > 100 µM | > 100 µM | > 100 µM | > 100 µM | > 100 µM | > 100 µM | > 100 µM | > 100 µM | > 100 µM | > 100 µM | – | – | – | –
Cc1ccc(C2=C(c3ccccc3)C(O)(c3ccccc3)C(c3ccccc3)=C2c2ccc(C)cc2)cc1 | > 100 µM | – | – | > 100 µM | > 100 µM | > 100 µM | > 100 µM | – | > 100 µM | > 100 µM | – | – | – | –
O=C(Cn1cc(I)c(C(=O)NCC(O)CO)n1)NCC(O)CO (stereo unspecified) | > 100 µM | – | > 100 µM | > 100 µM | > 100 µM | > 100 µM | > 100 µM | > 100 µM | > 100 µM | – | – | – | – | –
COc1ccc(/C=C2\CCC(C)(CN(C)C)C2=O)cc1Br (stereo unspecified) | 50 µM | > 91.6 µM | 32.2 µM | 97 µM | 17.7 µM | 31.8 µM | 35.1 µM | 35.9 µM | 23.3 µM | 45.7 µM | 85.4 µM | 42.1 µM | 41.2 µM | 39.7 µM
c1ccc(C2SCc3nc4ccccc4n32)cc1 (stereo unspecified) | > 100 µM | > 100 µM | > 100 µM | > 100 µM | > 100 µM | – | > 100 µM | > 100 µM | > 100 µM | > 100 µM | – | – | – | –
CC(C)C(N=C1CC2CCC1(C(=O)Nc1ccccc1O)C2(C)C)c1ccccc1 (stereo unspecified) | > 10 µM | > 10 µM | > 10 µM | > 10 µM | > 10 µM | > 10 µM | > 10 µM | > 10 µM | > 10 µM | > 10 µM | – | – | – | –
COC(=O)[C@@]1(Cc2ccc(OC(C)=O)cc2)Cc2cc3ccccc3n2N1 | 87.3 µM | > 100 µM | – | > 100 µM | – | – | > 100 µM | > 100 µM | > 100 µM | 70.6 µM | > 100 µM | > 100 µM | 77.6 µM | > 100 µM
O=C(O)Cn1cnc2c(=O)[nH]c(Nc3ccccc3)nc21 | > 100 µM | > 100 µM | – | > 100 µM | – | – | > 100 µM | > 100 µM | > 100 µM | > 100 µM | > 100 µM | > 100 µM | > 100 µM | > 100 µM
CCOP(=O)(OCC)C(Cc1cn(S(=O)(=O)c2ccc(C)cc2)cn1)C(=O)O (stereo unspecified) | > 100 µM | > 100 µM | – | > 100 µM | – | – | > 100 µM | > 100 µM | > 100 µM | > 100 µM | > 100 µM | > 100 µM | > 100 µM | > 100 µM
O=C1C2Cc3ccccc3CN2C(=O)N1CN1CCCCC1 (stereo unspecified) | > 100 µM | > 100 µM | > 100 µM | > 100 µM | > 100 µM | > 100 µM | > 100 µM | > 100 µM | > 100 µM | > 100 µM | – | – | – | –

Structure (SMILES) | TGI (A498 renal) | TGI (CAKI-1 renal) | TGI (DMS 273 small cell lung) | TGI (HOP-62 NSCLC) | TGI (KM20L2 colon) | TGI (LXFL 529 NSCLC) | TGI (M14 melanoma) | TGI (OVCAR-4 ovarian) | TGI (SF-268 CNS) | TGI (SR leukemia) | TGI (HS 578T breast) | TGI (MCF7 breast) | TGI (MDA-N) | TGI (PC-3 prostate)
Cn1cnc([N+](=O)[O-])c1Sc1nnc(-c2ccc(Cl)cc2)n1C | 81.8 µM | 29.7 µM | 36 µM | > 100 µM | – | 22.3 µM | 26.6 µM | 27.1 µM | 54.7 µM | 33.7 µM | – | – | – | –
CN(C)c1ccc(/C=C(\C#N)C(=O)c2ccccc2)cc1Br | – | > 100 µM | > 100 µM | 39.6 µM | > 100 µM | > 100 µM | > 100 µM | > 100 µM | > 100 µM | > 100 µM | – | – | – | –
COc1ccc2cc(CNCCOCCOCCNCc3ccc4cc(OC)ccc4c3)ccc2c1 | 3.78 µM | 3.22 µM | – | 3.87 µM | – | – | 0.687 µM | 4.07 µM | 2.99 µM | 2.29 µM | 3.46 µM | 2.5 µM | 2.35 µM | 3.16 µM
COc1ccc(/C=N/NC(=O)NCCNCCO)cc1 | > 100 µM | > 100 µM | > 100 µM | > 100 µM | > 100 µM | > 100 µM | > 100 µM | > 100 µM | > 100 µM | > 100 µM | – | – | – | –
COC(=O)C12CCC(CC1=O)C2(C)C (stereo unspecified) | > 100 µM | – | > 100 µM | > 100 µM | > 100 µM | – | > 100 µM | > 100 µM | – | > 100 µM | – | – | – | –
O=C(NNC(=O)c1ccccc1O)c1cccs1 | > 100 µM | > 100 µM | – | > 100 µM | – | – | > 100 µM | > 100 µM | > 100 µM | > 100 µM | > 100 µM | > 100 µM | > 100 µM | > 100 µM
COc1ccc(-c2oc(C=Nc3ccccc3)c([N+](=O)[O-])c2-c2ccc(OC)c(OC)c2)cc1OC | – | > 100 µM | > 100 µM | > 100 µM | > 100 µM | > 100 µM | > 100 µM | > 100 µM | > 100 µM | > 100 µM | – | – | – | –
c1ccc(C(OCCN2CC3CCC(C2)N3)c2ccccc2)cc1 | > 100 µM | > 100 µM | – | > 100 µM | – | – | 32.3 µM | > 100 µM | > 100 µM | > 100 µM | > 100 µM | > 100 µM | 79.6 µM | > 100 µM
COc1cc2c(cc1OC)C/C(=N\O)c1cc(OC)c(OC)cc1/C=C\2 | > 100 µM | > 29.4 µM | – | > 27 µM | – | – | 27.2 µM | > 100 µM | > 100 µM | > 50.8 µM | 15.1 µM | > 96.4 µM | > 100 µM | > 100 µM
C#CCN1C(=O)CN2C(Cl)(Cl)C2(c2ccccc2)c2cc(Cl)ccc21 (stereo unspecified) | – | > 100 µM | > 100 µM | > 100 µM | > 100 µM | > 100 µM | > 100 µM | > 100 µM | > 100 µM | > 100 µM | – | – | – | –
COc1cc([C@@H]2c3cc4c(cc3[C@H](OC3OC5COC(C(C)C)OC5C(O)C3O)C3COC(=O)[C@@H]32)OCO4)cc(OC)c1OC (stereo partly specified) | 9.96 µM | 17.5 µM | – | 25.4 µM | – | – | > 33 µM | > 100 µM | > 100 µM | 66.5 µM | > 30.9 µM | 13.2 µM | 3.53 µM | 22.4 µM
CCN(CC)CCNC(=O)C1COc2ccc(-c3cc(=O)c4ccccc4o3)cc2O1 (stereo unspecified) | 30.3 µM | 43.3 µM | 42.3 µM | 47 µM | 39 µM | – | – | 35.8 µM | 55.9 µM | – | – | 44.6 µM | – | –
O=C1/C(=C/Cc2ccco2)N=C(c2ccccc2)N1c1nc2ccc(Sc3ccccc3)cc2[nH]1 | 30.7 µM | > 100 µM | – | > 100 µM | – | – | 42.5 µM | 86.3 µM | 58.1 µM | 54.6 µM | 50.7 µM | 49.2 µM | 25 µM | 53.6 µM
Nc1nc(Cl)cc(Oc2ccc(Cl)cc2)n1 | > 100 µM | > 100 µM | – | > 100 µM | – | – | > 100 µM | > 100 µM | > 100 µM | > 100 µM | > 100 µM | > 100 µM | > 100 µM | > 100 µM
CCN1CC2(CO)CCC(OC)C34C5CC6C(OC)CC(O)(C5C6OC)C(O)(C(OC)C23)C14 (stereo unspecified) | > 375 µM | > 375 µM | > 375 µM | > 375 µM | > 375 µM | – | – | > 375 µM | > 375 µM | – | – | > 375 µM | – | –
Cc1nc2cc3[nH]c4ccccc4c(=O)c3cc2s1 | > 100 µM | > 100 µM | > 100 µM | > 100 µM | > 100 µM | > 100 µM | > 100 µM | > 100 µM | > 100 µM | > 100 µM | – | – | – | –
Cc1cccc(N=Nc2ccc(O)c(CN(C)C)c2)c1 | 38.8 µM | > 100 µM | – | 28.9 µM | – | – | 62.2 µM | > 100 µM | > 100 µM | > 100 µM | 44.9 µM | > 100 µM | 75.2 µM | > 100 µM
